Patent publication US20060057071A1, “Paramagnetic complexes with pendant crown compounds showing improved targeting-specificity as MRI contrast agents” (priority 2004, published 2006)
Where two headings read alike, the source gives them in different places.

Tests used:
[1] = Luminescence lifetime measurements for inner-sphere water molecules q (Tb complexes); type: physicochemical; details: for kH2O, absolute emission depopulation rate constant: in H2O; for kH2O, absolute emission depopulation rate constant / kH2O (Table 1), absolute emission depopulation rate constant / q, hydration state: pH 6.9 (0.1 M Tris/HCl), 298 K; for kH2O, absolute emission depopulation rate constant / kH2O (Table 1), absolute emission depopulation rate constant: ±10%; for inner-sphere coordinated (bound) water molecules: luminescent measurements, pH 6.9; for kH2O (Table 1), absolute emission depopulation rate constant: title names H2O and D2O; for q, hydration state: q^Tb = 5 (1/τH2O - 1/τD2O-0.06)
Text: As previously mentioned, inner-sphere proton relaxivity is linearly proportional to the number of water molecules q that are directly coordinated to the Gd^3+ center. However, there is a trade-off between the q value and toxicity. […] It is noteworthy that there is no direct method of measuring the hydration number. The two commonly used indirect methods are as follows: (1) Lanthanide-induced shift (LIS) methods (see, Alpoim et al., J. Chem. Soc., Dalton Trans., 1992, 463). For paramagnetic Ln^3+ ions, the plot of the observed ^17O shift in Ln^3+ chelate solution versus the complex concentration gives a straight line, with the slope being proportional to its hydration number. (2) The lanthanide luminescence method. According to the Horrocks equation, the q value can be calculated by the emission rate constants for the depopulation of Tb^3+ or Eu^3+ complexes measured in H2O and D2O (see, Beeby at al., J. Chem. Soc., Perkin Trans. 2, 1999, 493). With this method, the q values of the Gd^3+ complexes in aqueous solution can be measured indirectly by their corresponding Tb^3+ or Eu^3+ complexes, because of the very similar coordination behavior between these three lanthanide ions.
Luminescence lifetime measurements were all obtained on a Perkin-Elmer LS 50B spectrofluorimeter with a 420 nm cut-off filter. The concentration of the complex was 1×10^−5˜1×10^−4 mol dm^−3. The emission of Tb^3+ or Eu^3+ complexes was monitored at […]. Gd^3+ is a neighbor of Eu^3+ and Tb^3+ with a nearly identical ionic radius, and thus their chemistries are virtually identical. Therefore, the Horrocks equation for determining the number of coordinated water molecules q for Eu^3+ and Tb^3+ is still valid for the calculation of the q value of Gd^3+. In general, the number of coordinated water molecules q can be determined by the measurement of the luminescent lifetime of the complexes separately in H2O and D2O by application of the Horrocks equation. q′corr=A′(kH2O−kD2O−a) where k is the constant for depopulation (reciprocal of luminescent lifetime), and A is a proportionality constant that signifies the sensitivity of the lanthanide ion to vibronic quenching by OH oscillators. a is correlation value for the consideration of the outer-sphere water molecules.

[2] = cited from earlier work
[3] = 1H NMRD profiles (water proton relaxivity); type: physicochemical; details: for D / TR / TV / a / q / r / Δ^2: 25° C., pH 6.9, fits of NMRD profile and 17O NMR
Text: (§1) Measuring the relaxation rates of an abundant nuclear species as a function of the magnetic field over a wide range is called relaxometry. A relaxometry profile is a plot of the nuclear magnetic relaxation rate, usually 1/T1, as a function of the Larmor frequency or the magnetic field. This profile is also called a Nuclear Magnetic Resonance Dispersion (NMRD) profile. Compared with the NMRD profile, the prominent advantage of the ^17O NMR technique is that it allows the accurate determination of the water exchange rate 1/TM. This is a consequence of the oxygen nucleus being closer to the paramagnetic centre when bound in the inner-sphere, wherein the outer-sphere contributions to the relaxation rates are negligibly small. With the help of NMRD profiles, ^17O NMR measurements, and the Soloman-Bloemnergen-Morgan theory, several important parameters, such as TM, TR, TV, Δ^2 and rH, can be measured.
Water proton nuclear magnetic resonance dispersion NMRD profile is used to record the longitudinal water proton relaxation rates as a function of magnetic fields. The method is, in principle, sensitive to all of the parameters that influence relaxivity. The ^1H NMRD profiles were measured over a continuum of magnetic field strength from 0.00024 to 0.24 T (corresponding to 0.01-10 MHz proton Larmor frequency, 1 T≈41.7 MHz) on a Spinmaster FFC (Stelar, Mede (PV)), which is a fast field-cycling NMR relaxometer installed at the LIMA Laboratory (Bioindustry Park, Ivrea (TO), Italy). The relaxometer worked under complete control with an absolute uncertainty in 1/T1 of ±2%. The NMRD profiles were measured using 1-2 mM solutions of the complexes.

[4] = Variable-temperature 17O NMR transverse relaxation rate; type: physicochemical; details: for water exchange rate kex^298 / TM: 25° C.; for TM: pH 6.9, derived from VT 17O NMR spectroscopy; for exchange lifetime TM of inner-sphere coordinated water: 298 K (25° C.), 2.12 T; for q, inner-sphere coordinated water molecules: from NMRD profile / 17O NMR data, near neutral pH
Text: as §1
The variable-temperature ^17O NMR measurements were recorded on a JEOL EX-90 (2.1 T) spectrometer that was equipped with a 5 mm probe, by using a D2O external lock. The experimental settings were: spectral width of 10000 Hz, pulse width of 7 μs, acquisition time of 10 ms, 1000 scans, and no sample spinning. Solutions containing 2.6% of ^17O isotope were used. The observed transverse relaxation rates (R2obs^O) were calculated from the signal width at half height.

kidney cortex = test: In vivo MRI, renal intensity enhancement; design: species or system rat; details: for maximal renal intensity enhancement (IE): 0.1 mmol/kg (standard dosage), rat, first few minutes after administration
Experimental: (§2) To study the MRI contrast and biodistribution behavior of gadolinium complexes […] pendant crown ethers, experiments were performed using male Sprague-Dawley (SD) rats that weighted 150-180 g, and were housed at the Wuhan Institute of Physical and Mathematics of the Chinese Academy of Sciences (Wuhan, Hubei Province, China). All procedures conformed to the institutional guidelines for animal welfare. The rat was injected via the femoral vein with 1 mL saline solution of GdL1 in concentrations of 0.1, 0.033, and 0.02 mM/kg, which are the standard dosage, one third and one fifth of the standard dosage used in clinic currently. MR imaging was performed on a 4.7 T Bruker BIO-SPEC-47/30 MRI scanner with a custom spiral surface coil. The animal was scanned in the prone position in the MRI experiment. […] The total duration of the dynamic scanning lasted up to 400 min after the administration, with an image every 4 min. A water tube was placed in the field of view as a phantom reference. The intensity enhancement (IE) of the region of interest (RI) at time point t is expressed by IE=100% (RI(t)-RI(0))/RI(0) where RI(t) corresponds to the normalized signal intensity as measured at time point, t and RI(0) is the normalized signal intensity precontrast.

liver parenchyma = test: In vivo MRI, hepatic intensity enhancement; design: species or system rat; details: for maximal hepatic IE: 0.1 mmol/kg (standard dosage), rat
Experimental: as §2

[5] = 1H NMRD profiles (water proton relaxivity); type: physicochemical; details: 20 MHz; for proton relaxivity r1 (r1p): 25° C., pH 6.9
MIHA cells = test: AO/EB staining, laser scanning confocal microscopy; type: cell-based; details: 10 μM, 1 h, 2 h, 8 h, 24 h incubation, 37° C.
Experimental: MIHA cells in the absence (control) and presence of Gd-DOTA (10 μM), Gd-DO3A (10 μM), and GdL1 (10 μM) incubated at 37° C. and 5% CO2, 95% air in a humidified incubator for 1 h, 2 h, 8 h, and 24 h, respectively.
Based on cell morphology and cell membrane integrity, normal, necrotic, and apoptotic cells can be distinguished using laser confocal microscopy. FIG. 22 gives the cell morphology in the absence and presence of Gd-DOTA (10 μM), Gd-DO3A (10 μM), and GdL1 (10 μM) at various time intervals after the incubation. In the absence or presence of the Gd^3+ complexes, the nuclei of the living cells were stained as bright blue spots in the nucleus.

[6] = 298 K; cited from earlier work

| Compound | kH2O, absolute emission depopulation rate constant [1] | kH2O (Table 1), absolute emission depopulation rate constant [1] | q, hydration state [1] | D [3] | TR [3] | TV [3] | a [3] | q [3] | r [3] | Δ^2 [3] | TM [4] | also measured |
| --- | --- | --- | --- | --- | --- | --- | --- | --- | --- | --- | --- | --- |
| O=C([O-])CN1CCN(CCN2CCOCCOCCOCCOCC2)CCN(CC(=O)[O-])CCN(CC(=O)[O-])CC1.[Tb+3] [TbL1] | 0.72 ms^−1 | 0.34 ms^−1 | 1.6 | – | – | – | – | – | – | – | – | inner-sphere coordinated (bound) water molecules [1]: two |
| O=C([O-])CN1CCN(CC(=O)[O-])CCN(C(CO)C(O)CO)CCN(CC(=O)[O-])CC1.[Gd+3] (stereo not shown) [Gd[DO3A-butrol]] | – | – | – | – | – | – | – | – | – | – | – | relaxivity ([2]; 37° C., 20 MHz): 5.6 mM⁻¹ s⁻¹ |
| CC(O)CN1CCN(CC(=O)[O-])CCN(CC(=O)[O-])CCN(CC(=O)[O-])CC1.[Gd+3] (stereo not shown) [Gd-[HP-DO3A]] | – | – | – | – | – | – | – | – | – | – | – | relaxivity ([2]; 40° C., 20 MHz): 3.65 mM⁻¹ s⁻¹ |
| O=C([O-])CN1CCN(CCOCC2COCCOCCOCCOCCO2)CCN(CC(=O)[O-])CCN(CC(=O)[O-])CC1.[Gd+3] (stereo not shown) [GdL2, Gd^3+ complex of L2] | – | – | – | 2.24E-5 cm^2s^−1 | 140 ps | 13 ps | 4.0 Å | 2 | 2.97 Å | 9e+19 s⁻¹ | 116 ns | water exchange rate kex^298 [4]: 8.62e+06 s⁻¹; exchange lifetime TM of inner-sphere coordinated water [4]: 116 ns; q, inner-sphere coordinated water molecules [4]: about 2; renal enhancement left in less than an hour (kidney cortex; 0.1 mmol/kg): 30%; maximal renal intensity enhancement (IE) (kidney cortex): 135%; hepatic IE level maintained for more than 4 h (liver parenchyma; 0.1 mmol/kg): > 60%; time after administration of maximal hepatic IE (liver parenchyma; 0.1 mmol/kg): 60 min; time for which strong/high hepatic IE was maintained (liver parenchyma; 0.1 mmol/kg): more than 4 h; maximal hepatic IE (liver parenchyma): 100%; proton relaxivity r1 (r1p) [5]: 9.36 mM⁻¹ s⁻¹; outer-sphere contribution to the overall observed proton relaxivity ([5]; pH 10.0): about 50%; outer-sphere relaxivity ([5]; pH 10.0): 2.1 mM⁻¹ s⁻¹; overall relaxivity ([5]; pH 10.0): 4.21 mM⁻¹ s⁻¹ |
| O=C([O-])CN1CCNCCN(CC(=O)[O-])CCN(CC(=O)[O-])CC1.[Gd+3] [Gd-DO3A, reference compound] | – | – | – | 2.24E-5 cm^2s^−1 | 66 ps | 14 ps | 3.9 Å | 2 | 3.15 Å | 4.6e+19 s⁻¹ | 160 ns | water exchange rate kex^298 [4]: 6.3e+06 s⁻¹; exchange lifetime TM of inner-sphere coordinated water [4]: 160 ns; maximal renal intensity enhancement (IE) (kidney cortex): 140%; time after administration at which almost all renal IE was diminished (kidney cortex; 0.1 mmol/kg, kidney cortex): 120 min; cell morphology (apoptotic or necrotic cells) (MIHA cells): no obvious apoptotic or necrotic cells were found; proton relaxivity r1 (r1p) [5]: 5.72 mM⁻¹ s⁻¹; thermodynamic stability log K [6]: 22.0 |
| O=C([O-])CN(CCN(CC(=O)[O-])CC(=O)O)CCN(CC(=O)[O-])CC(=O)O.[Gd+3] [Gd-DTPA, reference compound] | – | – | – | 2.24E-5 cm^2s^−1 | 73 ps | 20 ps | 4.0 Å | 1 | 3.1 Å | 4.2e+19 s⁻¹ | 250 ns | r1p ([2]; 20 MHz, 298 K, typical values): 4.69 mM⁻¹ s⁻¹; bound water molecular resident lifetime TM ([2]; 298 K, typical values): ~303 ns |

Continued, in another order:

| kH2O, absolute emission depopulation rate constant [1] | kH2O (Table 1), absolute emission depopulation rate constant [1] | q, hydration state [1] | D [3] | TR [3] | TV [3] | a [3] | q [3] | r [3] | Δ^2 [3] | TM [4] | Compound | also measured |
| --- | --- | --- | --- | --- | --- | --- | --- | --- | --- | --- | --- | --- |
| 0.74 ms^−1 | 0.35 ms^−1 | 1.7 | – | – | – | – | – | – | – | – | O=C([O-])CN1CCN(CCOCC2COCCOCCOCCOCCO2)CCN(CC(=O)[O-])CCN(CC(=O)[O-])CC1.[Tb+3] (stereo not shown) [TbL2] | inner-sphere coordinated (bound) water molecules [1]: two |
| 0.48 ms^−1 | 0.27 ms^−1 | 0.8 | – | – | – | – | – | – | – | – | O=C([O-])CN1CCN(CC(=O)[O-])CCN(CC(=O)[O-])CCN(CC(=O)[O-])CC1.[Tb+3] [Tb-DOTA, reference compound] | – |
| 0.88 ms^−1 | 0.42 ms^−1 | 2.0 | – | – | – | – | – | – | – | – | O=C([O-])CN1CCNCCN(CC(=O)[O-])CCN(CC(=O)[O-])CC1.[Tb+3] [Tb-DO3A, reference compound] | – |
| 0.50 ms^−1 | 0.31 ms^−1 | 0.7 | – | – | – | – | – | – | – | – | O=C([O-])CN1CCN(CC(=O)[O-])CCN(CC(=O)N2CCOCCOCCN(Cc3ccc4ccccc4n3)CCOCCOCC2)CCN(CC(=O)[O-])CC1.[Tb+3] [TbL3] | inner-sphere coordinated (bound) water molecules [1]: one |
| – | – | – | 2.24E-5 cm^2s^−1 | 210 ps | 21 ps | 4.2 Å | 1 | 3.03 Å | 3e+19 s⁻¹ | 246 ns | O=C([O-])CN1CCN(CC(=O)[O-])CCN(CC(=O)N2CCOCCOCCN(Cc3ccc4ccccc4n3)CCOCCOCC2)CCN(CC(=O)[O-])CC1.[Gd+3] [GdL3, Gd^3+ complex of L3] | reorientation lifetime TR [3]: 210 ps; exchange lifetime TM of inner-sphere coordinated water [4]: 246 ns; q, inner-sphere coordinated water molecules [4]: 1; maximal renal intensity enhancement (IE) (kidney cortex): 58%; hepatic IE level maintained for more than 4 h (liver parenchyma; 0.1 mmol/kg): about 50%; time for which strong/high hepatic IE was maintained (liver parenchyma; 0.1 mmol/kg): more than 4 h; maximal hepatic IE (liver parenchyma): 59%; relaxivity ([5]; pH 7.4): 4.95 mM⁻¹ s⁻¹ |
